From patent US6172079A, “5-substituted-3-oxadiazolyl-1,6-naphthyridin-2(1H)-one derivatives” (Dainippon Pharmaceutical Co., Ltd., priority 1997, dated 2001)

Legend:
[1] = target: benzodiazepine receptor; experiment: Benzodiazepine Receptor Binding Assay; conditions: read-out: BZP-receptor Binding IC50; [3H]-diazepam 1.5 nM; rat brain crude synaptosome membrane; 0° C., 20 min
[2] = system: GABAA receptor complex (TBPS binding); experiment: TBPS Binding Assay; parameters: species or system Wistar rats; conditions: [35S]TBPS 0.4 nM, GABA 1 μM, rat cerebral cortex membrane, +% inverse agonistic, 0% antagonistic
Procedure: The TBPS (t-butylbicyclophosphonothionate) binding assay and the preparation of the membrane specimen were done in a similar manner to the method of Biggio, G. et al. [cf. European Journal of Pharmacology, vol.
That is, to the cerebral cortex was added a 50-fold volume of an ice-cooled buffer (a 50 mM Tris-citrate buffer containing 100 mM sodium chloride, pH 7.4) and the mixture was homogenized at 0-4° C. and then centrifuged at 20,000 g for 20 minutes. The pellets thus obtained were once subjected to homogenization in a buffer and centrifugation by the same procedure as above and then kept in freezed state at -80° C. for more than 20 hours. On the test day, the freezed pellets were thawed and then subjected twice to the homogenization-centrifugation procedure as described above.
Subsequently, the filter was moved into a liquid scintillation vial and thereto was added a liquid scintillation cocktail (ACS-II, manufactured by Amersham, USA, 10 ml) and allowed to stand for a fixed period of time. […] Separately, the same procedures were repeated in the presence of Picrotoxin to determine the non-specific binding amount. The non-specific binding amount was deducted from the total binding amount to give the specific binding amount. The binding activity of the test compound was calculated by a variation rate, i.e., a rate of the specific binding amount of the test compound to the specific binding amount in control (using a solvent).

Row | SMILES | IC50 [1] | TBPS binding Variation Rate [2]
1 | CCc1nc(-c2cc3c(C4CCCCC4)nccc3[nH]c2=O)no1 [Example 23] | 1.76 nM | -23%
2 | CCc1nc(-c2cc3c(CC)nccc3[nH]c2=O)no1 [Example 14] | 9.45 nM | 38%
3 | CCCc1nc(-c2cc3c(-c4ccccc4)nccc3[nH]c2=O)no1 [Example 38] | 1.31 nM | 25%
4 | COc1ccc(-c2nccc3[nH]c(=O)c(-c4nc(C)no4)cc23)cc1 [Example 187] | 6.42 nM | 27%
5 | O=c1[nH]c2ccnc(-c3ccc(Cl)cc3)c2cc1-c1nc(C2CC2)no1 [Example 241] | 6.08 nM | -14%
6 | CC(C)c1nccc2[nH]c(=O)c(-c3nc(C4CC4)no3)cc12 [Example 233] | 1.58 nM | 31%
7 | Cc1nc(-c2cc3c(-c4ccccc4F)nccc3[nH]c2=O)no1 [Example 87] | 2.35 nM | 32%
8 | CCc1nc(-c2cc3c(-c4ccncc4)nccc3[nH]c2=O)no1 [Example 107] | 6.56 nM | 17%
9 | CC(C)c1noc(-c2cc3c(C4CC4)nccc3[nH]c2=O)n1 [Example 224] | 3.57 nM | -12%
10 | O=c1[nH]c2ccnc(-c3cccc(Cl)c3)c2cc1-c1noc(C2CC2)n1 [Example 55] | 1.66 nM | -16%
11 | CCc1nccc2[nH]c(=O)c(-c3noc(C4CC4)n3)cc12 [Example 48] | 1.49 nM | 18%
12 | CC(C)c1nc(-c2cc3c(-c4ccc(F)cc4)nccc3[nH]c2=O)no1 [Example 47] | 2.33 nM | -11%
13 | CCc1noc(-c2cc3c(CC(C)C)nccc3[nH]c2=O)n1 [Example 196] | 4.6 nM | -9%
14 | Cc1noc(-c2cc3c(-c4ccccc4F)nccc3[nH]c2=O)n1 [Example 176] | 2.13 nM | 39%
15 | CCc1nc(-c2cc3c(C)nccc3[nH]c2=O)no1 [Example 13] | – | 24%
16 | Cc1nc(-c2cc3c(C)nccc3[nH]c2=O)no1 [Example 2] | – | 53%
17 | Cc1nc(-c2cc3c(-c4ccc(Cl)cc4)nccc3[nH]c2=O)no1 [Example 8] | – | 13%
18 | Cc1noc(-c2cc3c(-c4cccc(F)c4)nccc3[nH]c2=O)n1 [Example 177] | – | 29%
19 | CCCc1nc(-c2cc3c(C(C)C)nccc3[nH]c2=O)no1 [Example 36] | – | 15%

Further lines, results first:

Row | IC50 [1] | TBPS binding Variation Rate [2] | SMILES
20 | 1.09 nM | 13% | CCc1nc(-c2cc3c(-c4ccccc4F)nccc3[nH]c2=O)no1 [Example 95]
21 | 0.88 nM | 40% | CC(C)c1nccc2[nH]c(=O)c(-c3noc(C4CC4)n3)cc12 [Example 50]
22 | 1.31 nM | -23% | CCc1nc(-c2cc3c(-c4cccc5ccccc45)nccc3[nH]c2=O)no1 [Example 100]
23 | 1.2 nM | 34% | Cc1noc(-c2cc3c(-c4ccco4)nccc3[nH]c2=O)n1 [Example 188]
24 | 0.81 nM | 13% | O=c1[nH]c2ccnc(-c3ccco3)c2cc1-c1nc(C2CC2)no1 [Example 245]
25 | 0.74 nM | -11% | O=c1[nH]c2ccnc(-c3ccccc3)c2cc1-c1noc(C2CC2)n1 [Example 52]
26 | 1.22 nM | 13% | Cc1noc(-c2cc3c(-c4cccc(Cl)c4)nccc3[nH]c2=O)n1 [Example 180]
27 | 0.82 nM | 24% | CCc1noc(-c2cc3c(-c4ccco4)nccc3[nH]c2=O)n1 [Example 211]
28 | 1.03 nM | 11% | CCc1noc(-c2cc3c(-c4ccccc4)nccc3[nH]c2=O)n1 [Example 198]
29 | 1.21 nM | 28% | Cc1noc(-c2cc3c(-c4ccccc4)nccc3[nH]c2=O)n1 [Example 175]
